Measurements as given in PMC3130777, “Phase I Hydroxylated Metabolites of the K2 Synthetic Cannabinoid JWH-018 Retain In Vitro and In Vivo Cannabinoid 1 Receptor Affinity and Activity” (PLoS ONE, 2011).
Values joined by “and” are separate entries in the source; they are usually repeats but may differ in a detail not shown here. Equal values may be shown once. Read-outs that look alike come from different tables or passages of the source.

Experiments:
CB1R [1] = biological target: T1, CB1R (Mus musculus, UniProt P47746); assay: biochemical; format: binding; conditions: for Displacement of [^3H]CP-55,940 from CB1Rs: mouse brain homogenates, data not shown; for Fold higher CB1R affinity than Δ^9-THC: relative to Δ^9-THC Ki
T1 construct: CB1Rs are endogenously expressed in abundant quantities in the CNS; from tissue; host or cells: whole brain of B6SJL mice, crude membrane homogenates

NIH Swiss mice [2] = assay: Locomotor activity measured by radiotelemetry in mice; format: in vivo, mouse; conditions: for Locomotor activity (area under the curve) relative to vehicle controls: 10 h time course, n = 5
CB1R [3] = biological target: T1, CB1R; format: biochemical; conditions: for Level of G-protein stimulation relative to Δ^9-THC / Agonist type at mCB1Rs (partial or full): 10 µM; for Agonist type at mCB1Rs (partial or full): compared with full agonist CP-55,940; for G-protein stimulation ([^35S]GTPγS bound): receptor saturating concentration (10 µM), Fig. 3A
NIH Swiss mice [4] = assay: Core body temperature measured by radiotelemetry in mice; format: in vivo, mouse; conditions: for Core body temperature area under the curve relative to vehicle controls: 0–10 hr, n = 5; for Depression in core body temperature compared with 30 mg/kg Δ^9-THC: 10 h time course
CB1R [5] = biological target: CB1R; design: method as in PMID 10940540, PMID 21079038; conditions: read-out: Ki values previously reported; cited from earlier work
[6] = Affinity (Ki) for CB1Rs, competition against 0.2 nM [^3H]CP-55,940, mouse whole brain membrane homogenates, mean ± SEM, n = 3–4
[7] = concentration-effect curve, Fig. 3B, n = 3–4
[8] = AM-251 10 mg/kg pretreatment, 30 mg/kg Δ^9-THC, 3 mg/kg JWH-018, 10 mg/kg M1 i.p.

T1 sequence (P47746 whole entry): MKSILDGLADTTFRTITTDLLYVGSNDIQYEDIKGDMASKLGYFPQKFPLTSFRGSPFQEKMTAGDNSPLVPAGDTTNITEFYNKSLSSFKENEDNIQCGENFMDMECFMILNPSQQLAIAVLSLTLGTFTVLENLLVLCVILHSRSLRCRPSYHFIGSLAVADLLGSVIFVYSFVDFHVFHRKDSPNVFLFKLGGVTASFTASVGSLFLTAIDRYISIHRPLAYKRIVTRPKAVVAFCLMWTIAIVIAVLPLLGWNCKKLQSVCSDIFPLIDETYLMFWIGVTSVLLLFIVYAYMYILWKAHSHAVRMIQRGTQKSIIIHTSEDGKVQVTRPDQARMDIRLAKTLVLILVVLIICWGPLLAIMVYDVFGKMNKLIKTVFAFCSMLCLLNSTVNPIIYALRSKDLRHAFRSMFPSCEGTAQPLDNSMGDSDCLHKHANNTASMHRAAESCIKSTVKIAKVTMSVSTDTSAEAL

Compound | Ki (CB1R [1]; [6]) | Displacement of [^3H]CP-55,940 from CB1Rs (CB1R [1]) | Level of G-protein stimulation relative to Δ^9-THC (CB1R [3]) | Agonist type at mCB1Rs (partial or full) (CB1R [3]) | G-protein stimulation ([^35S]GTPγS bound) (CB1R [3]) [pmol/mg] | further results
CCCCCn1cc(C(=O)c2cccc3ccccc23)c2c(O)cccc21 [M1, (4-hydroxy-1-pentyl-1H-indol-3-yl)(naphthalen-1-yl)methanone] | 2.6 nM and 2.65 nM | completely displaced | greater | partial | – | Fold higher CB1R affinity than Δ^9-THC (CB1R [1]): ~10 fold; Locomotor activity (area under the curve) relative to vehicle controls (NIH Swiss mice [2]; 10 mg/kg i.p.): significantly decrease; Core body temperature area under the curve relative to vehicle controls (NIH Swiss mice [4]; 10 mg/kg i.p.): significantly lower than vehicle controls; Depression in core body temperature compared with 30 mg/kg Δ^9-THC (NIH Swiss mice [4]; 10 mg/kg i.p.): greater depressions
CCCCCn1cc(C(=O)c2cccc3ccccc23)c2ccc(O)cc21 [M3, (6-hydroxy-1-pentyl-1H-indol-3-yl)(naphthalen-1-yl)methanone] | 17.2 ± 3.58 nM | completely displaced | greater | full | – | –
CCCCCn1cc(C(=O)c2cccc3ccccc23)c2cccc(O)c21 [M4] | 20.8 ± 4.85 nM | completely displaced | equivalent | partial | – | –
CCCCCn1cc(C(=O)c2cccc3ccccc23)c2cc(O)ccc21 [M2, (5-hydroxy-1-pentyl-1H-indol-3-yl)(naphthalen-1-yl)methanone] | 4.22 ± 1.16 nM | completely displaced | greater | full | 0.32 ± 0.03 | –
O=C(O)CCCCn1cc(C(=O)c2cccc3ccccc23)c2ccccc21 [M6, 5-(3-(1-naphthoyl)-1H-indol-1-yl)pentanoic acid] | > 10000 nM | – | – | – | – | Affinity (Ki) for CB1Rs (CB1R [1]; competition against 0.2 nM [^3H]CP-55,940, mouse whole brain membrane homogenates, mean ± SEM, n = 3–4): fails to bind
CCCCCCC(C)(C)c1ccc([C@@H]2C[C@H](O)CC[C@H]2CCCO)c(O)c1 [CP-55,940, reference compound] | – | – | – | full | 0.39 ± 0.02 | Ki (CB1R [1]; competition against 0.2 nM [^3H]CP-55,940, mouse whole brain membrane homogenates, mean ± SEM, n = 3–4, read-out: Affinity (Ki) for CB1Rs): 0.26 ± 0.12 nM; Maximal efficacy (Emax) of G-protein activation (CB1R [3]; [7]): 0.28 ± 0.02 pmol/mg; EC50 (CB1R [3]; concentration-effect curve, Fig. 3B, n = 3–4, read-out: EC50 of G-protein activation): 3.36 ± 2.35 nM
CCCCCn1cc(C(=O)c2cccc3ccccc23)c2ccccc21 [JWH-018, (1-pentyl-1H-indol-3-yl)-1-naphthalenyl-methanone] | 1.2 nM and 1.22 nM | – | greater | full | 0.29 ± 0.02 | Ki (CB1R [5]): 9 nM; Fold higher CB1R affinity than Δ^9-THC (CB1R [1]): ~10 fold; Locomotor activity (area under the curve) relative to vehicle controls (NIH Swiss mice [2]; 3 mg/kg i.p.): significantly decrease; Maximal efficacy (Emax) of G-protein activation (CB1R [3]; [7]): 0.29 ± 0.02 pmol/mg; Core body temperature area under the curve relative to vehicle controls (NIH Swiss mice [4]; 3 mg/kg i.p.): significantly lower than vehicle controls; Depression in core body temperature compared with 30 mg/kg Δ^9-THC (NIH Swiss mice [4]; 3 mg/kg i.p.): greater depressions
O=C(c1cccc2ccccc12)c1cn(CCCCCO)c2ccccc12 [M5, (1-(5-hydroxypentyl)-1H-indol-3-yl)(naphthalen-1-yl)methanone] | 25.2 ± 4.99 nM | completely displaced | greater | full | – | –
Cc1c(C(=O)NN2CCCCC2)nn(-c2ccc(Cl)cc2Cl)c1-c1ccc(I)cc1 [AM-251, reference compound] | – | – | – | – | – | Effect of Δ^9-THC, JWH-018 and M1 on locomotor activity after antagonist pretreatment (NIH Swiss mice [2]; [8]): significantly attenuated; Core body temperature after antagonist pretreatment of cannabinoid-treated mice (NIH Swiss mice [4]; [8]): restored core body temperature to control levels
